Values belong to the compound of their own block, whether it stands above or below them.
Key:
[1] = biological target: T1, Histone acetyltransferase KAT2B (Homo sapiens, UniProt Q92831); experiment: Inhibition of human recombinant N-terminal His-tagged PCAF histone acetyltransferase catalytic domain expressed in Escherichia coli BL21 D3 using biotinylated histone H3 as substrate after 10 mins by TR-FRET analysis relative to control
Target sequence in this assay (Q92831 whole entry, the tested form may be a part): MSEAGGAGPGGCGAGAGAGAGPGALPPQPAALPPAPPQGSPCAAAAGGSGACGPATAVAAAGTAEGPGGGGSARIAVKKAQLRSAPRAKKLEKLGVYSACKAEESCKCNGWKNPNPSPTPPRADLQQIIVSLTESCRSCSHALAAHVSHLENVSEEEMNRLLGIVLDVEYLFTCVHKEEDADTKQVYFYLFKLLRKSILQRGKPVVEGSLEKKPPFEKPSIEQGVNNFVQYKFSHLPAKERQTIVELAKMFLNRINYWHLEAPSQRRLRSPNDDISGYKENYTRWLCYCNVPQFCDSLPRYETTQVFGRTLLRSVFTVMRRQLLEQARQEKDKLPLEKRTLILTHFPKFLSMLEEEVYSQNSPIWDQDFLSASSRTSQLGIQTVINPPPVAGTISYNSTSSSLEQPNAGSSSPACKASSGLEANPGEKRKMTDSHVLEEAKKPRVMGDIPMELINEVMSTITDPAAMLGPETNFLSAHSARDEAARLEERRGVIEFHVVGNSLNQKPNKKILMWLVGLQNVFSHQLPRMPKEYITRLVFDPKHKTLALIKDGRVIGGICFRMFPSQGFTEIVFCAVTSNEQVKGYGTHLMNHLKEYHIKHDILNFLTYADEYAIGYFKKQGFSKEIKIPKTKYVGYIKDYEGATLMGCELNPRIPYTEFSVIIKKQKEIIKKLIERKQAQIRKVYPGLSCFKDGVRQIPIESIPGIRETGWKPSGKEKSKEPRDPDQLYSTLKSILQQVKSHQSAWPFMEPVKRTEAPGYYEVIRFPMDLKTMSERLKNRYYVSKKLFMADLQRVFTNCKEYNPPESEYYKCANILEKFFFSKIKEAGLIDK

[2] = biological target: T2, Histone acetyltransferase KAT2A (Homo sapiens, UniProt Q92830); experiment: Inhibition of KAT2A (362 to 837) (unknown origin) using biotinylated histone H3 as substrate after 10 mins by TR-FRET analysis relative to control
Target sequence in this assay (Q92830 whole entry): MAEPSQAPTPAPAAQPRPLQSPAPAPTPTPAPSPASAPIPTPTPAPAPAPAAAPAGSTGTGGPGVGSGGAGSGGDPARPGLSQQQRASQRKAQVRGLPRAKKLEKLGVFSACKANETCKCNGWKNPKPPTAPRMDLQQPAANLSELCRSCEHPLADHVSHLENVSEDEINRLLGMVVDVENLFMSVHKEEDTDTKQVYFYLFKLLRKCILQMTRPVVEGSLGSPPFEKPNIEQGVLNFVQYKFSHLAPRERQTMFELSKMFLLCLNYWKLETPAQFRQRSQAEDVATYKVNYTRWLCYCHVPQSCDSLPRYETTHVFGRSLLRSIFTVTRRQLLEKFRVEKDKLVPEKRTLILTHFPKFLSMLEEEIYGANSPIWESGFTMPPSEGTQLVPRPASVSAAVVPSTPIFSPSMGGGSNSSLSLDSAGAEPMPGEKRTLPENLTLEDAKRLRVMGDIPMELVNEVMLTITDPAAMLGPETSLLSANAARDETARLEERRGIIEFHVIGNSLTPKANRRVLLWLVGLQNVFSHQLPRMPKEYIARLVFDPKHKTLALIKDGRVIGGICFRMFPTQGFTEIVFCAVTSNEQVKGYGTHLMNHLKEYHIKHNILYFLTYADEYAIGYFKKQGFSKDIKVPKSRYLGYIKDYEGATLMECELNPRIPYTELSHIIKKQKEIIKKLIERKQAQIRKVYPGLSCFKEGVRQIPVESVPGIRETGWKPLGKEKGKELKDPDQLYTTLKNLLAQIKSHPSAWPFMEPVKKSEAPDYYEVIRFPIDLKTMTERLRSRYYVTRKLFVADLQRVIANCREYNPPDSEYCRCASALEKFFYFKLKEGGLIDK

CREB-binding protein [3] = biological target: T3, CREB-binding protein (Homo sapiens, UniProt Q92793); experiment: Inhibition of KAT3A (1319 to 1710) (unknown origin) using biotinylated histone H3 as substrate after 10 mins by TR-FRET analysis relative to control
[4] = biological target: T4, Histone acetyltransferase p300 (Homo sapiens, UniProt Q09472); experiment: Inhibition of KAT3B (965 to 1810) (unknown origin) using biotinylated histone H3 as substrate after 10 mins by TR-FRET analysis relative to control
T4 sequence (Q09472 whole entry, the tested form may be a part): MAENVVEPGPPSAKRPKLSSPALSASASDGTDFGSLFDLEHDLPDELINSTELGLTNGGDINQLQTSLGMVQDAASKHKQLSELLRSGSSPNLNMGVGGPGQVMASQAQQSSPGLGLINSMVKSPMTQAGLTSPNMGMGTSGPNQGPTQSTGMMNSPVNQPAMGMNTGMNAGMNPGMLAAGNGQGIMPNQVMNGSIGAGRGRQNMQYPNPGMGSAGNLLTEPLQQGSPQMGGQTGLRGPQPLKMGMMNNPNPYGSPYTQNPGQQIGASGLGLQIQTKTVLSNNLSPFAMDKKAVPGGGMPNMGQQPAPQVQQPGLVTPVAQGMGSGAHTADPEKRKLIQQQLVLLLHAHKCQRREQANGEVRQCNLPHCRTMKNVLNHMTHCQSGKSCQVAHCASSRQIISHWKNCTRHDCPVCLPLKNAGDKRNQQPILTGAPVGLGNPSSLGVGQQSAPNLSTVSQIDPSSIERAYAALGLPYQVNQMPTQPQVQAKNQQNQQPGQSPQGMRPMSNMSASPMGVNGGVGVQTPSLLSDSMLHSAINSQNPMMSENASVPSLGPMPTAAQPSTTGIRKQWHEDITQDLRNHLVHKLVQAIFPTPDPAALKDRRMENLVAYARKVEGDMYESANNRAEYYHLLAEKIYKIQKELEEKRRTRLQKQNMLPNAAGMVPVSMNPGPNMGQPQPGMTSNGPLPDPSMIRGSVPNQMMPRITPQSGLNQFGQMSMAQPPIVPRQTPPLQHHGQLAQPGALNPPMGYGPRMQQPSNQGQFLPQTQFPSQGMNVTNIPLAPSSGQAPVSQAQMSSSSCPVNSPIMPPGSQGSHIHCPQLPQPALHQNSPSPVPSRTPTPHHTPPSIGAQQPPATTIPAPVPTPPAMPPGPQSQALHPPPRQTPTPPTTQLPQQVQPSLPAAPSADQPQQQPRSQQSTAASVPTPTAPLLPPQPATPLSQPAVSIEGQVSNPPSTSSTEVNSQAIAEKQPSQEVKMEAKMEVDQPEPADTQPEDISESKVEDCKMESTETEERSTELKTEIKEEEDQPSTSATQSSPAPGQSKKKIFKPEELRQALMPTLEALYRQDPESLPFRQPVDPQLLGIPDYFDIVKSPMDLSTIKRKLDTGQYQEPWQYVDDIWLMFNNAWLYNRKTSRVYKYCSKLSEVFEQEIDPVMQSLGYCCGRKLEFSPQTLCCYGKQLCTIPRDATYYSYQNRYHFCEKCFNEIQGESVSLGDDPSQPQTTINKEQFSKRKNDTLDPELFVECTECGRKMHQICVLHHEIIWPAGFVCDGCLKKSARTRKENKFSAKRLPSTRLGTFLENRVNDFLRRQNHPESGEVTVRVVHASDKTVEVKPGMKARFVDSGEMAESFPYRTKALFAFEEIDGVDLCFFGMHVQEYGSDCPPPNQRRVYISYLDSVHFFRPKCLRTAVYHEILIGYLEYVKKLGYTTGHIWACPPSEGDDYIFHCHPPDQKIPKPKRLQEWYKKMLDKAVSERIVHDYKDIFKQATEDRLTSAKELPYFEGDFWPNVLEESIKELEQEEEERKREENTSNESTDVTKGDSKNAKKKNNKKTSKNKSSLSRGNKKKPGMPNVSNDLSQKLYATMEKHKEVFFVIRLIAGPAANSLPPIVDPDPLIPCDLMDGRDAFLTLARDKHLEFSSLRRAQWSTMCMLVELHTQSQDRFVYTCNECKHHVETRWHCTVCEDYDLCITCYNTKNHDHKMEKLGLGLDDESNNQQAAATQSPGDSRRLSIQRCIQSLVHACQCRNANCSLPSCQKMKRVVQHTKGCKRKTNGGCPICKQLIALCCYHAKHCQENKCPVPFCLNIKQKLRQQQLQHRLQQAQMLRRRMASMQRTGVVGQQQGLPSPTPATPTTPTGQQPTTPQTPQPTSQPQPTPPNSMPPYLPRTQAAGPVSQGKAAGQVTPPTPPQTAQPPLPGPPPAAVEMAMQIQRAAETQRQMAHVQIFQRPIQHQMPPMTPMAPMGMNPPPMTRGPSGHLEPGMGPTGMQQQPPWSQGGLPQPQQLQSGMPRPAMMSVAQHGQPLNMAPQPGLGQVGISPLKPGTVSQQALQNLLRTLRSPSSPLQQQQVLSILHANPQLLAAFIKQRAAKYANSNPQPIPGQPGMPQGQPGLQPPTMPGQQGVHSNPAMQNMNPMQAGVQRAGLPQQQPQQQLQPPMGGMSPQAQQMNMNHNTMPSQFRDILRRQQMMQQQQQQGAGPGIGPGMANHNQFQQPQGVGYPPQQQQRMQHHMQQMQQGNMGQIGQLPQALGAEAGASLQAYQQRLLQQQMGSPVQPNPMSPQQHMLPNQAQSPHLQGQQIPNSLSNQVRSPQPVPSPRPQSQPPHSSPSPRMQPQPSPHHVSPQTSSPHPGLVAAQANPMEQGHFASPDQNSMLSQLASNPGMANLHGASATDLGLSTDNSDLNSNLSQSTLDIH

[5] = biological target: T1, Histone acetyltransferase KAT2B; experiment: Inhibition of human recombinant N-terminal His-tagged PCAF histone acetyltransferase catalytic domain expressed in Escherichia coli BL21 D3 using biotinylated histone H3 as substrate at 50 uM after 10 mins by TR-FRET analysis relative to control
Target sequence in this assay (Q92831 whole entry, looked up, the tested form may be a part): as the sequence (Q92831 whole entry, the tested form may be a part) above

[6] = biological target: T2, Histone acetyltransferase KAT2A; experiment: Inhibition of KAT2A (362 to 837) (unknown origin) using biotinylated histone H3 as substrate at 50 uM after 10 mins by TR-FRET analysis relative to control
Target sequence in this assay (Q92830 2-837 limits assumed): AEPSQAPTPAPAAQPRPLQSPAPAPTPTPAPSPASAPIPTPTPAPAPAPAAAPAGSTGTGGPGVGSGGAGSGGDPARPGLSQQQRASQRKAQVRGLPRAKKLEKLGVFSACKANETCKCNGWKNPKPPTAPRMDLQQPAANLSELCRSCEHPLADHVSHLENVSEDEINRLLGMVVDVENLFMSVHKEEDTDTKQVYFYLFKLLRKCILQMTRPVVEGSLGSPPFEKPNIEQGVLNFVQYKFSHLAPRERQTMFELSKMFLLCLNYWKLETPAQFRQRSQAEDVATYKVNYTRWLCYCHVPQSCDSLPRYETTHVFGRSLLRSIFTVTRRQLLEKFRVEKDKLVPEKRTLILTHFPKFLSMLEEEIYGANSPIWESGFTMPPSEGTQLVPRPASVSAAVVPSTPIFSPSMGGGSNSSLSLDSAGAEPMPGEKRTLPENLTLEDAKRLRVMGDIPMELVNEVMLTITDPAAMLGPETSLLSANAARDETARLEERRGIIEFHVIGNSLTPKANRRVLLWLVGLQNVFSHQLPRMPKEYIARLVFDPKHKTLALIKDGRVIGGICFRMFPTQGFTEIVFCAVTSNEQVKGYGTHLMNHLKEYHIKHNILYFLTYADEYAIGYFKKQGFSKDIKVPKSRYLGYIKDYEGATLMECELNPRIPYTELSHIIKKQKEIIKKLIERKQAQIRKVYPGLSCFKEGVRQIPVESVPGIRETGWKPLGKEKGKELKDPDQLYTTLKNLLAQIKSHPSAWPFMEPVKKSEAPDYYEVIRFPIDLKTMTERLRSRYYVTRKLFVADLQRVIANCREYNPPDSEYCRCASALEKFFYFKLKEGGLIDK

[7] = biological target: T4, Histone acetyltransferase p300; experiment: Inhibition of KAT3B (965 to 1810) (unknown origin) using biotinylated histone H3 as substrate at 50 uM after 10 mins by TR-FRET analysis relative to control
CREB-binding protein [8] = biological target: T3, CREB-binding protein; experiment: Inhibition of KAT3A (1319 to 1710) (unknown origin) using biotinylated histone H3 as substrate at 50 uM after 10 mins by TR-FRET analysis relative to control
[9] = biological target: T4, Histone acetyltransferase p300; experiment: Inhibition of KAT3B (965 to 1810) (unknown origin) using biotinylated histone H3 as substrate at 100 uM after 10 mins by TR-FRET analysis relative to control

- IC50 [1]: 67.2 µM
- IC50 [2]: 47 µM
- IC50 (CREB-binding protein [3]): 41 µM
- IC50 [4]: 81 µM
SMILES: Cc1ccc(CN2C(=O)/C(=C3\SC(=S)N(CCCCCC(=O)O)C3=O)c3ccccc32)cc1

- inhibition [5]: < 5%
SMILES: O=C1Nc2ccccc2/C1=C1/SC(=S)N(CCS(=O)(=O)O)C1=O

- inhibition [5]: < 5%
SMILES: O=C(O)CCCCCN1C(=O)/C(=C/c2ccc(-c3ccccc3)cc2)SC1=S

- inhibition [5]: 8%
SMILES: COc1ccc(/C=C2\SC(=S)N(CCCCCC(=O)O)C2=O)cc1Br

- inhibition [5]: 24%
SMILES: COC(=O)CCCCCN1C(=O)/C(=C/c2ccc(C)cc2)SC1=S

- inhibition [5]: < 5%
SMILES: CN(C)c1ccc(/C=C2\SC(=S)N(CCCCCC(=O)O)C2=O)cc1

- inhibition [5]: 12%
SMILES: CC1=C/C(=N/Nc2ccnc3cc(Cl)ccc23)CC1

- inhibition [5]: 6%
SMILES: Cc1cccc(NC(=O)CN2C(=O)/C(=C3\SC(=S)N(CCS(=O)(=O)O)C3=O)c3ccccc32)c1

- IC50 [2]: 89.9 µM
- IC50 (CREB-binding protein [3]): 1.95 µM
SMILES: O=c1c2cccnc2sn1Cc1ccc(Cl)cc1

- inhibition [5]: 21%
SMILES: COC(=O)CCCCCN1C(=O)/C(=C/c2cc(OC)ccc2OC)SC1=S

- inhibition [5]: < 5%
SMILES: Cc1ccc(CN2C(=O)/C(=C3\SC(=S)N(CCS(=O)(=O)O)C3=O)c3ccccc32)cc1

- inhibition [5]: 6%
SMILES: CCN1C(=O)/C(=C2\SC(=S)N(CCCCCC(=O)O)C2=O)c2ccccc21

- IC50 [1]: 78.2 µM
- IC50 [2]: 69.6 µM
- IC50 (CREB-binding protein [3]): 28.4 µM
- IC50 [4]: 152 µM
SMILES: O=C(O)CCCCCN1C(=O)/C(=C2/C(=O)N(Cc3ccc([N+](=O)[O-])cc3)c3ccccc32)SC1=S

- inhibition [5]: 8%
SMILES: CCCCCCOc1ccc(/C=C2\SC(=S)N(CCCC(=O)O)C2=O)cc1

- inhibition [5]: 9%
SMILES: O=C(O)CCCCCN1C(=O)/C(=C2/C(=O)Nc3ccccc32)SC1=S

- IC50 [1]: 63.7 µM
- IC50 [2]: 63.5 µM
- IC50 (CREB-binding protein [3]): 35.9 µM
- IC50 [4]: 95.3 µM
SMILES: Cc1ccc(CN2C(=O)/C(=C3\SC(=S)N(CCCCCCCC(=O)O)C3=O)c3ccccc32)cc1

- inhibition [5]: 8%
SMILES: COC(=O)CCN1C(=O)/C(=C/c2cc(OC)ccc2OC)SC1=S

- IC50 [1]: 28.8 µM
- IC50 [2]: 54.7 µM
- IC50 (CREB-binding protein [3]): 40.9 µM
- IC50 [4]: 61.9 µM
SMILES: COc1ccc(CN2C(=O)/C(=C3\SC(=S)N(CCCCCC(=O)O)C3=O)c3ccccc32)cc1

- inhibition [5]: 13%
SMILES: O=C(O)CCCCCN1C(=O)/C(=C2/C(=O)N(Cc3ccccc3)c3ccccc32)SC1=S

- inhibition [5]: 5%
SMILES: Cc1ccc(COc2cccc(/C=C3\SC(=S)N(CCCC(=O)O)C3=O)c2)cc1

- IC50 [1]: 97.7 µM
- IC50 [2]: 210 µM
- IC50 (CREB-binding protein [3]): 116 µM
- IC50 [4]: 244 µM
SMILES: O=C(O)CCCCCN1C(=O)/C(=C2/C(=O)N(Cc3ccc(F)cc3)c3ccccc32)SC1=S

- inhibition [5]: 8%
- inhibition [6]: 6%
- inhibition [7]: < 5%
- inhibition (CREB-binding protein [8]): 25%
SMILES: COC(=O)CCCCCN1C(=O)/C(=C2/C(=O)N(Cc3ccc(C)cc3)c3ccccc32)SC1=S

- IC50 [1]: 41.8 µM
- IC50 [2]: 46.4 µM
- IC50 (CREB-binding protein [3]): 38.5 µM
- inhibition [9]: 23%
SMILES: Cc1ccc(CN2C(=O)/C(=C3\SC(=S)N(C[C@H]4CC[C@H](C(=O)O)CC4)C3=O)c3ccccc32)cc1

- inhibition [5]: 14%
SMILES: O=C(O)c1ccc(N2C(=O)/C(=C3/C(=O)N(Cc4ccccc4)c4ccccc43)SC2=S)cc1

- inhibition [5]: 5%
SMILES: CN1C(=O)/C(=C2\SC(=S)N(CCCCCC(=O)O)C2=O)c2ccccc21

- inhibition [5]: 8%
SMILES: Cc1ccc(CN2C(=O)/C(=C3\SC(=S)N(CCCCC(=O)O)C3=O)c3ccccc32)cc1

- inhibition [5]: 9%
SMILES: CCOc1ccccc1/C=C1\SC(=S)N(CCCCCC(=O)OC)C1=O

Source: ChEMBL document CHEMBL3217510, “Rhodanine carboxylic acids as novel inhibitors of histone acetyltransferases” (Medchemcomm, 2012)
